Reference: US20250263416A1, “SPPL2a INHIBITORS” (Incyte Corporation, priority 2024, published 2025)
Entries after “also recorded” stand apart in the source; their conditions may differ.

What was measured:
[1] = test system: Collagen-Induced Arthritis (CIA) mouse model; experiment: Collagen-induced arthritis (CIA) mouse model; assay type: in vivo, DBA-1 mice; conditions: 50 mg/kg dose, compared to the vehicle
Text: Female DBA-1 mice (8-9 weeks old) were used in the CIA mouse model. This model is widely used to evaluate efficacy of immunomodulatory drugs on autoimmune diseases, such as arthritis. DBA/1 mice develop collagen-induced arthritis (CIA) after immunization with bovine type II collagen emulsified in complete Freund's adjuvant (CFA), followed by a booster dose 21 days later. Both the immunizations were given subcutaneously, approximately 25 mm from the base of the tail on opposite sides. Immunizations were performed under a short duration isoflurane anesthesia. Mice were evaluated for the disease progression up to 45 days. […] Statistical significance was determined using Two-way ANOVA with multiple comparison tests to compare all groups to the vehicle.

human SPPL2a [2] = target: T1, human SPPL2a (Homo sapiens, UniProt Q8TCT8); experiment: Western blot assay of TNFα-GFP cleavage in U2OS cells expressing human SPPL2a; assay type: cell-based; conditions: SPPL2a-U2OS reporter cells, 24 h
T1 construct: expressed in transfected cells; host or cells: U2OS (SPPL2a reporter cell line)
T1 sequence (Q8TCT8 26-520): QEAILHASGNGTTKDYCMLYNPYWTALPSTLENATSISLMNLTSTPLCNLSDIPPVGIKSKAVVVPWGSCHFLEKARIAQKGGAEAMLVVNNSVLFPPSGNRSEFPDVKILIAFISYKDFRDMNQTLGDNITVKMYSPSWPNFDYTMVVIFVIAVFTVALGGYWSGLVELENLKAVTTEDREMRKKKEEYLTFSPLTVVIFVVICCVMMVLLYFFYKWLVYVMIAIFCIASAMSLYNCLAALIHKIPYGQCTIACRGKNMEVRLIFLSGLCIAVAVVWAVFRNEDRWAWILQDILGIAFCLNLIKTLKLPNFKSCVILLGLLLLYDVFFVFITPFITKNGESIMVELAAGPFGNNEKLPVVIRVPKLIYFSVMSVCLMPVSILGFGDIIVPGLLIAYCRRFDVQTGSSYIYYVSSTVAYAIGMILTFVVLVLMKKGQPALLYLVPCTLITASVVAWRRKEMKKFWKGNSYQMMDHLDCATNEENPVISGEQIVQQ
Experimental: To confirm the cleavage of TNF-α in the U2OS cells that express human SPPL2a, a western blot assay was performed. The same cell line used for the imaging assays were used; these cells express human SPPL2a constitutively and an eGFP-labelled TNFα (aa 1-76) NTF substrate under a doxycycline promotor. In the presence of SPPL2a activity, TNFα-GFP is cleaved at the NTF, resulting in a single 54-56 kDa band (lower MW). If SPPL2a activity is inhibited, TNFα GFP processing is abrogated resulting in a higher molecular weight band (60-62 kDa; complete inhibition) and or both 54-56 kDa and 60-62 kDa bands (incomplete inhibition, smeared appearance) on the blot. Both Example 1 and Example A were added at indicated concentrations, and cells were incubated for 24 h with the inhibitors. Total cell lysated were prepared in ice cold-1X RIPA buffer containing protease inhibitor cocktail (AKR-190, Cell BioLabs). Lysates were collected and quantified for the total protein on NanoDrop using BCA kit (23227, Thermo Scientific). […] To detect cleaved and un-cleaved TNFα-GFP fragments, anti-GFP antibody (AF4240, R&D Biosystems) was used as a primary antibody and detected using anti-goat detection module (DM-006, ProteinSimple) according to the manufacturer's protocol. Data was analyzed using ProteinSimple compass software.

[3] = test system: Imiquimod (IMQ)-induced psoriasis mouse model; experiment: Imiquimod (IMQ)-induced psoriasis mouse model; assay type: in vivo, BALB/c female mice; conditions: 15 mg/kg PO BID
Experimental: A comparative study was performed to evaluate the efficacy of the deuterated-inhibitor Example 1 to Example A in the mouse model of psoriasis. Briefly, BALB/c female mice (7-8 week age) were shaved on the dorsal skin and 62.5 mg of IMQ cream was applied daily until day 9. Simultaneously, 15 mg of IMQ cream was applied on one ear daily until day 9. Example 1 and Example A were given orally (PO) at 15 mg/kg, BID. Mice were monitored and clinical signs of psoriasis were recorded (PSI score), both on the dorsal skin (erythema, scaling & thickness) and on the IMQ-applied ear (thickness). All data is presented as mean+SEM. For comparison of more than two groups, ANOVA was used. Pearson product moment correlation was used to test for correlations. All statistical analysis was performed using GraphPad Prism™ 10.

[4] = In vivo epimerization and PK, statements covering all three preclinical models; parameters: species or system Sprague Dawley rats, beagle dogs, cynomolgus monkeys; conditions: for retention of deuterium in the process of epimerization: all species studied; for in vivo epimerization at the chiral carbon in the 7-membered ring: rat, monkey and dog models, PO; for exposures and PK (other than epimerization) across species: rats, monkeys, dogs
Experimental: These factors may lead to accumulation and potenial toxicity. The effect on epimerization by substitution at the chiral carbon was tested by comparing Example A, Example 1, and Example 29 in the following preclinical in vivo pharmacokinetic models: Sprague Dawley rats, beagle dogs, and cynomolgus monkeys.
Two groups of male Sprague Dawley rats (n=3 each) received either a single 10 mg/kg PO dose of Example A or Example 1 in a vehicle consisting of 0.5% methylcellulose in water. Blood samples were collected at 0.25, 0.5, 1, 2, 4, and 6 hours postdose.
Male Sprague Dawley rats (n=3 each) received a single 3 mg/kg PO dose of Example 29 in a vehicle consisting of 5% dimethylacetamide (DMAC) in 50 mM citrate buffer w/0.5% methylcellulose. Blood samples were collected at predose, 0.25, 0.5, 1, 2, 4, 6, 8, 12, and 24 hours postdose.
(§1) Three groups of male cynomolgus monkeys (n=2 each) received either a single 3 mg/kg PO dose of Example A, Example 1, or Example 29 in a vehicle consisting of 5% dimethylacetamide (DMAC) in 50 mM citrate buffer w/0.5% methylcellulose. Blood samples were collected at predose, 0.25, 0.5, 1, 2, 3, 4, 6, 8, 12, and 24 hours postdose.
as §1, with “beagle dogs” for “cynomolgus monkeys”, “12, 24” for “12,”, “48” for “24”
All blood samples were collected using EDTA as the anticoagulant and centrifuged to obtain plasma. Plasma concentrations of Example A, Example 1, and their respective diastereomers were determined under non-GLP conditions using standard reverse phase LC-MS/MS bioanalytical methods. The individual plasma concentration-time data was used to determine the area under the curve (AUC) values using GraphPad Prism (v9.3.1).

human SPPL2a [5] = target: T1, human SPPL2a; experiment: Nuclear translocation imaging assay for human SPPL2a (SPPL2a reporter U2OS cell line); assay type: cell-based; conditions: U2OS reporter cells, 24 h incubation
Experimental: The nuclear translocation imaging assays for human SPPL2a were performed using an SPPL2a reporter U2OS cell line as previously described (Velcicky et al 2018, Zhang et al 2017). These cells stably express human SPPL2a and a doxycycline inducible eGFP TNFα (aa 1-76) NTF fusion protein (SPPL2a substrate). Both Example 1 and Example A were added at indicated concentrations and cells were incubated for 24 h, washed, and fixed. Nuclei were stained with DAPI. Images were acquired on a confocal fluorescence microscope system LSM-800 (Carl Zeiss). Image data was analyzed by using mid-section from Z-stack images of at least 10 individual cells per sample. All data is presented as mean+SEM. Statistical significance was calculated with the ANOVA test using GraphPad Prism™ 10.

retention of deuterium in the process of epimerization [4]	exposures and PK (other than epimerization) across species [4]	SMILES	clinical signs of CIA [1]	TNFα-GFP cleavage inhibition (SPPL2a activity inhibition) (human SPPL2a [2])	dorsal PSI scores [3]	ear thickness measurements [3]	clinical signs of psoriasis disease ([3]; compared to vehicle group)	Mouse IL-12 level in plasma ([3]; terminal day)	Mouse TNFα level in plasma ([3]; terminal day)	in vivo epimerization at the chiral carbon in the 7-membered ring [4]	inhibition of nuclear translocation of TNFα-GFP (human SPPL2a [5])
retained	consistent	[2H][C@@]1(NC(=O)[C@H](C)CNC(=O)c2sc(C(=O)NC)nc2C)C(=O)N2CCCN2Cc2ccccc21 [Example 1, N^2,4-Dimethyl-N^5—((R)-2-methyl-3-oxo-3-(((S)-11-oxo-2,3,10,11-tetrahydro-1H,5H-benzo[d]pyrazolo[1,2-a][1,2]diazepin-10-yl-10-d)amino)propyl)thiazole-2,5-dicarboxamide]	significantly reduced	SPPL2a activity inhibition; also recorded: Comparable and significant TNFα-GFP cleavage inhibition	alleviate	alleviate	significantly reduced	significant reduction	significant reduction	reduction of in vivo epimerization; also recorded: observed in all three models	inhibited; also recorded: comparable and significant TNFα-GFP inhibition of nuclear translocation
retained	consistent	[2H]C([2H])([2H])NC(=O)c1nc(C)c(C(=O)NC[C@@H](C)C(=O)N[C@]2([2H])C(=O)N3CCCN3Cc3ccccc32)s1 [Example 29, 4-Methyl-N2-(methyl-d3)—N^5—((R)-2-methyl-3-oxo-3-(((S)-11-oxo-2,3,10,11-tetrahydro-1H,5H-benzo[d]pyrazolo[1,2-a][1,2]diazepin-10-yl-10-d)amino)propyl)thiazole-2,5-dicarboxamide]								observed in all three models	
